Values quoted from earlier work, collected in US20030087843A1, “O-pyrazole glucoside SGLT2 inhibitors and method of use” (priority 2001, published 2003).

Experiments:
[1] = system: facilitative glucose transporters (GLUTs)
[2] = normal animals, despite the presence of glycosuria
[3] = oral
human SGLT2 = target: T1, human SGLT2 (Homo sapiens, UniProt P31639); settings: read-out: Km for uptake of AMG
T1 sequence (P31639 1-672): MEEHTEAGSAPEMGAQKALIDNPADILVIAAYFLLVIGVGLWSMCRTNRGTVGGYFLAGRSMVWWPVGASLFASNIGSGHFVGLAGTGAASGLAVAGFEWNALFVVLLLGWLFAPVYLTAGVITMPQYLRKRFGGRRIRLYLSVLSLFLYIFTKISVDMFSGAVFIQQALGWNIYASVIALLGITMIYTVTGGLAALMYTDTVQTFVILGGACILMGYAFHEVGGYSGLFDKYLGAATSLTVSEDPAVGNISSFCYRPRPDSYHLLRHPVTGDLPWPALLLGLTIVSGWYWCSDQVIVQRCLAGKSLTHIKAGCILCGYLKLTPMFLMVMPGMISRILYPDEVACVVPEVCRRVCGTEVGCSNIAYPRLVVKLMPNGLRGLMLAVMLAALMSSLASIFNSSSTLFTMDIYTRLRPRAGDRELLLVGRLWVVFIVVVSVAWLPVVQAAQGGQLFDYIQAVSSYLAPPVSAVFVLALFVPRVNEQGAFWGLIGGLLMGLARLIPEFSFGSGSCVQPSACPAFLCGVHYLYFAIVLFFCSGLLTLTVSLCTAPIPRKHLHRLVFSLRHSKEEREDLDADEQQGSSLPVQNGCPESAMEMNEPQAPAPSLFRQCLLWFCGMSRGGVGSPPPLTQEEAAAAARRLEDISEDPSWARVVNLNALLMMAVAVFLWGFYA

human SGLT1 = target: T2, human SGLT1 (Homo sapiens, UniProt P13866); settings: read-out: Km for uptake of AMG
T2 sequence (P13866 1-664): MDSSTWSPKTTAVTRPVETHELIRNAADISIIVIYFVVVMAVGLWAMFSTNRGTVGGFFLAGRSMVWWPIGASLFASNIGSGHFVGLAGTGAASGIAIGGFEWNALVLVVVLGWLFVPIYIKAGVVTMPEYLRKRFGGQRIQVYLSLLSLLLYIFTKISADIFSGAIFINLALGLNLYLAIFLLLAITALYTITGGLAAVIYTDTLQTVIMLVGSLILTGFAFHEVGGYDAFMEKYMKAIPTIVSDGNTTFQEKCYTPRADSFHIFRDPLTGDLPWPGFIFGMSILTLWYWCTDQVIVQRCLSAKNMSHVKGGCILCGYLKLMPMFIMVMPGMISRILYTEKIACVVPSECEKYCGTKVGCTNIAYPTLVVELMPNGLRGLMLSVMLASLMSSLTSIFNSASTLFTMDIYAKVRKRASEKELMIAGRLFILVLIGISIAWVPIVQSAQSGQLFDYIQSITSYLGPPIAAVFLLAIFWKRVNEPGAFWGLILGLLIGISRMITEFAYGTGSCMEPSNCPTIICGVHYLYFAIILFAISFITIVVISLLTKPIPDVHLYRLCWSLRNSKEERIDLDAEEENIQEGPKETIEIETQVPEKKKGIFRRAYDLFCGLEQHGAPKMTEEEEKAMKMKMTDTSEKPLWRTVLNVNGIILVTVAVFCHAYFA

[4] = diabetic rodent models and one canine diabetes model

SMILES: O=C(CCc1ccc(O)cc1)c1c(O)cc(O)cc1O [phloretin]
- inhibition of facilitated glucose transport [1]: potent inhibitor

SMILES: O=C(CCc1ccc(O)cc1)c1c(O)cc(O)cc1O[C@@H]1O[C@H](CO)[C@@H](O)[C@H](O)[C@H]1O [phlorizin]
- hypoglycemic or other adverse effects [2]: no hypoglycemic or other adverse effects
- fasting and fed plasma glucose (SGLT2 activity; [4]): lowering fasting and fed plasma glucose
- glucose excretion (SGLT2 activity; [4]): promoting glucose excretion
- hypoglycemic side effects (SGLT2 activity; [4]): without hypoglycemic side effects
- adverse effects on plasma ion balance, renal function or renal morphology (SGLT2 activity; treatment for as long as two weeks): No adverse effects
- hydrolysis in the gut [3]: hydrolyzed in the gut to its aglycone phloretin

SMILES: CO[C@H]1O[C@H](CO)[C@@H](O)[C@H](O)[C@H]1O [AMG, α-methyl-D-glucopyranoside]
- Km (human SGLT2): 1600 µM
- Km (human SGLT1): 400 µM
